Results reported in patent US7998937B2, “Flavonoid compound having an antiviral activity” (Korea Research Institute of Bioscience and Biotechnology, priority 2005, dated 2011).
Values after ≈ are worked out from the molar mass of the structure shown. Read-outs that look alike come from different tables or passages of the source.

How the values were obtained:
[1] = tested on: influenza type B (B/Lee/40) virus; experiment: Inhibitory activity against influenza type B virus in MDCK cells (SRB); format: cell-based; conditions: Influenza B virus, read-out: Inhibitory activity (%) (Mean ± S.D.)
[2] = tested on: influenza type A (H1N1/WS/33) virus; experiment: Antiviral activity against influenza type A virus in MDCK cells (SRB); format: cell-based, influenza virus type A (H1N1; WS/33 strain); conditions: Influenza A virus; 10 μg/mL, influenza A H1N1/WS/33 in MDCK cells, 48 hours, repeated 3 times; read-out: Inhibitory activity (%) (Mean ± S.D.)
Method: In order to evaluate the inhibitory activity of quercetin-7-rhamnoside against influenza virus, the following in vitro test was performed using MDCK cells derived from dog kidney.
Inhibitory activity of quercetin-7-rhamnoside against viral proliferation was measured by the method proposed by Kwon Dur-Han, et al. (Korean Patent Application No. 2004-101863). Inhibitory activity against influenza virus type A (H1N1; WS/33 strain) was measured. MDCK cells were cultured on a 96-well microplate until the bottom of each well was completely covered with cells. Remaining culture medium was completely removed and each well was washed twice with a phosphate buffer. Each of quercetin-7-rhamnoside; conventional antiviral agents purchased from Sigma-ribavirin and amantadine; oseltamivir (trade name: Tamiflu) purchased from Roche; and zanamivir (trade name: Relenza) purchased from Glaxo Wellcome; dissolved in dimethyl sulfoxide was added to each well to a final concentration of 10 μg/mL. […] After adding 100 μL of 70% acetone, each well was kept at −20° C. for 1 hour. After drying in a desiccator, 100 μL of 0.4% (w/v) SRB (sulforhodamine B) solution dissolved in 1% (v/v) acetic acid was added. After 30 minutes' staining, the SRB staining solution not bound to the cells was washed off with 1% (v/v) acetic acid for 4 times. After drying, 100 μL of 10 mM Tris solution (pH 10.5) was added to each well to dissolve the stained substance at the bottom of the well. Light absorbance was measured at 562 nm to evaluate the antiviral activity. As control group, viability of cells treated with DMSO only was compared with those treated with both DMSO and virus. Each test was repeated 3 times.

[3] = tested on: rhinovirus (strain: rhinovirus 2); experiment: Inhibitory activity against rhinovirus in HeLa cells (SRB); format: cell-based; conditions: for inhibition at 10 µg/mL: Enterovirus, HeLa, 48 h, read-out: Inhibitory activity (%) (Mean ± S.D.)
Method: In order to evaluate the inhibitory activity of quercetin-7-rhamnoside against rhino virus, the following in vitro test was performed using HeLa, one of human cervical cancer cell lines, cells. Inhibitory activity of quercetin-7-rhamnoside against viral proliferation was measured by the method proposed by Kwon Dur-Han, et al. (Korean Patent Publication No. 2004-101863). […] HeLa cells were cultured on a 96-well microplate until the bottom of each well was completely covered with cells. Remaining culture medium was removed and each well was washed twice with a phosphate buffer. A rhino virus solution adjusted to a concentration of TCID 50 was added to each well. […] After 48 hours, the HeLa cells were observed under a microscope. After adding 100 μL of 70% acetone, each well was kept at −20° C. for 1 hour. After drying in a desiccator, 100 μL of 0.4% (w/v) SRB (sulforhodamine B) solution dissolved in 1% (v/v) acetic acid was added. After 30 minutes of staining, the SRB solution not bound to the cells was washed off with 1% (v/v) acetic acid for 4 times. After drying, 100 μL of 10 mM Tris solution (pH 10.5) was added to each well to dissolve the stained substance at the bottom of the well. Light absorbance was measured at 562 nm to evaluate the antiviral activity. As control group, viability of cells treated with DMSO only was compared with those treated with both DMSO and virus. Each test was repeated for 3 times.

[4] = tested on: porcine epidemic diarrhea virus (PEDV); experiment: Antiviral activity against PEDV in Vero cells (SRB staining); conditions: for IC50 (concentration required for 50% inhibition of viruses) / Inhibitory activity (TI = CC50/IC50): PEDV in Vero cells, 48 hours; for IC50 (concentration required for 50% inhibition of viruses): maximum dosage 100 μg/mL; for IC50: Porcine epidemic diarrhea virus, Vero, 48 h, read-out: IC50 (concentration required for 50% inhibition of viruses); for Inhibitory activity (TI = CC50/IC50): 0.1-100 μg/mL
rotavirus (strain: OSU) = experiment: Inhibitory activity against rotavirus in MA104 cells (SRB); format: cell-based; conditions: read-out: Inhibitory activity (%) (Mean ± S.D.)
Method: In order to evaluate the inhibitory activity of quercetin-7-rhamnoside against rota virus, the following in vitro test was performed using MA014 cells derived from […] kidney. Inhibitory activity of quercetin-7-rhamnoside against viral proliferation was measured by the method proposed by Kwon Dur-Han, et al. (Korean Patent Publication No. 2004-101863). Inhibitory activity against rotavirus (strain: OSU) was measured. MA104 cells were cultured on a 96-well microplate until the bottom of each well was completely covered with cells. Remaining culture medium was removed and each well was washed twice with a phosphate buffer. A rota virus solution adjusted to a concentration of TCID 50 was added to each well. […] After 48 hours, the MA104 cells were observed under a microscope. After adding 100 μL of 70% acetone, each well was kept at −20° C. for 1 hour. After drying in a desiccator, 100 μL of 0.4% (w/v) SRB (sulforhodamine B) solution dissolved in 1% (v/v) acetic acid was added. After 30 minutes of staining, the SRB solution not bound to the cells was washed off with 1% (v/v) acetic acid for 4 times. After drying, 100 μL of 10 mM Tris solution (pH 10.5) was added to each well to dissolve the stained substance at the bottom of the well. Light absorbance was measured at 562 nm to evaluate the antiviral activity. As control group, viability of cells treated with DMSO only was compared with those treated with both DMSO and virus. Each test was repeated for 2 times.

[5] = tested on: porcine respiratory coronavirus (PRCV); experiment: Anti-coronavirus inhibitory activity against PRCV in ST cells; format: cell-based; conditions: for inhibitory activity against PRCV (in words): 0.1-100 μg/mL, 48 hours
Method: (§1) Antiviral activity of quercetin-7-rhamnoside against porcine transmissible gastroenteritis virus (TGEV) and porcine respiratory coronavirus (PRCV), another kind of coronaviruses, was evaluated. ST cells were cultured on a 96-well microplate until the bottom of each well was completely covered with cells. Remaining culture medium was completely removed and each well was washed twice with a phosphate buffer. TGEV or PRCV solution adjusted to a concentration of TCID50 was added to each well. Each of quercetin-7-rhamnoside, conventional antiviral agents purchased from Sigma-ribavirin, lamivudine, azidovudine, acycloguanine and glycyrrhizhin-dissolved in dimethyl sulfoxide was added to each well to a final concentration of 0.1-100 μg/mL. […] Similarly to the aforesaid evaluation of antiviral inhibitory activity against PEDV, c ells treated with DMSO only and those treated with both DMSO and TGEV or both DMSO and PRCV were used as control groups.

[6] = tested on: porcine transmissible gastroenteritis virus (TGEV); experiment: Anti-coronavirus inhibitory activity against TGEV in ST cells; format: cell-based; conditions: for inhibitory activity against TGEV (in words): 0.1-100 μg/mL, 48 hours
Method: as §1

in vitro [7] = conditions: African green monkey
in vitro [8] = conditions: pig
[9] = 10 μg/mL, rhinovirus 2 in HeLa cells, 48 hours, repeated 3 times
[10] = 10 μg/mL, influenza B/Lee/40 in MDCK cells, 48 hours, repeated 3 times
[11] = 10 μg/mL, rotavirus OSU in MA104 cells, 48 hours, repeated 2 times
[12] = Alphacoronavirus 1, 48 hours, read-out: IC50

Compound: NC12CC3CC(CC(C3)C1)C2 [Amantadine, amantadine]
- inhibition at 10 µg/mL ([1]; MDCK, 48 h): -1.85%
- inhibition at 10 µg/mL [2]: 14.6%

Compound: O=c1c(-c2ccc(O)cc2)coc2cc(O[C@@H]3O[C@H](CO)[C@@H](O)[C@H](O)[C@H]3O)cc(O)c12 [Genistin, genistin]
- inhibition at 10 µg/mL [3, 9]: 13%
- IC50 (concentration required for 50% inhibition of viruses) [4]: IC50 not attained even at the maximum dosage.
- IC50 [4]: > 100 µg/mL

Compound: O=c1cc(-c2ccc(O)c(O)c2)oc2cc(O)cc(O)c12 [Luteolin, luteolin]
- inhibition at 10 µg/mL [3, 9]: 21.8%
- IC50 [4]: 0.21 µg/mL (≈ 0.734 µM)

Compound: catechin
- Inhibitory activity (%) (Mean ± S.D.) [3, 9]: 11.21%
- Inhibitory activity (TI = CC50/IC50) [4]: > 9.0
- Inhibitory activity (TI = CC50/IC50) ([4]; listed as catechin): 9.0
- IC50 (concentration required for 50% inhibition of viruses) [4]: 11.1 µg/mL

Compound: CC1(C)[C@@H](O[C@H]2O[C@H](C(=O)O)[C@@H](O)[C@H](O)[C@H]2O[C@@H]2O[C@H](C(=O)O)[C@@H](O)[C@H](O)[C@H]2O)CC[C@]2(C)[C@H]3C(=O)C=C4[C@@H]5C[C@@](C)(C(=O)O)CC[C@]5(C)CC[C@@]4(C)[C@]3(C)CC[C@@H]12 [Glycyrrhizin, glycyrrhizin]
- inhibition at 10 µg/mL (rotavirus (strain: OSU); Rotavirus, MA104, 48 h): 0.49%
- inhibitory activity against PRCV (in words) [5]: no inhibitory activity
- inhibitory activity against TGEV (in words) [6]: no inhibitory activity

Compound: C[C@@H]1O[C@@H](OC[C@H]2O[C@@H](Oc3c(-c4ccc(O)c(O)c4)oc4cc(O)cc(O)c4c3=O)[C@H](O)[C@@H](O)[C@@H]2O)[C@H](O)[C@H](O)[C@H]1O [Rutin, rutin]
- inhibition at 10 µg/mL [3, 9]: 25.7%
- IC50 [4]: > 100 µg/mL

Compound: CC(=O)N[C@H]1[C@H]([C@H](O)[C@H](O)CO)OC(C(=O)O)=C[C@@H]1N=C(N)N [Relenza, zanamivir]
- inhibition at 10 µg/mL [1, 10]: 3.4%
- inhibition at 10 µg/mL (rotavirus (strain: OSU); [11]): 0.5%
- IC50 (concentration required for 50% inhibition of viruses) [4]: IC50 not attained even at the maximum dosage
- inhibition at 10 µg/mL [2]: 52.7%

Compound: CCOC(=O)C1=C[C@@H](OC(CC)CC)[C@H](NC(C)=O)[C@@H](N)C1 [Tamiflu, oseltamivir]
- inhibition at 10 µg/mL ([1]; MDCK, 48 h): -1.43%
- IC50 (concentration required for 50% inhibition of viruses) [4]: IC50 not attained even at the maximum dosage
- inhibition at 10 µg/mL [2]: -9.78%

Compound: C[C@@H]1O[C@@H](Oc2c(-c3ccc(O)c(O)c3)oc3cc(O)cc(O)c3c2=O)[C@H](O)[C@H](O)[C@H]1O [Quercitrin, quercitrin]
- inhibition at 10 µg/mL [3]: 13.4%
- IC50 [4]: > 100 µg/mL

Compound: O=c1cc(-c2ccc(O)cc2)oc2cc(O)cc(O)c12 [Apigenin, apigenin]
- inhibition at 10 µg/mL [3, 9]: 9.24%
- IC50 [4]: 0.1 µg/mL (≈ 0.37 µM)
- CC50 at 48 h (in vitro [7]): 50 µg/mL (≈ 185 µM)

Compound: Nc1nc2c(ncn2COCCO)c(=O)[nH]1 [Acycloguanine, acycloguanine]
- inhibition at 10 µg/mL (rotavirus (strain: OSU); [11]): 0.78%
- inhibitory activity against PRCV (in words) [5]: no inhibitory activity
- IC50 (concentration required for 50% inhibition of viruses) [4]: IC50 not attained even at the maximum dosage
- IC50 [4]: > 100 µg/mL
- inhibitory activity against TGEV (in words) [6]: no inhibitory activity

Compound: Nc1ccn([C@@H]2CS[C@H](CO)O2)c(=O)n1 [Lamivudine, lamivudine]
- inhibition at 10 µg/mL (rotavirus (strain: OSU); [11]): 0.02%
- inhibitory activity against PRCV (in words) [5]: no inhibitory activity
- IC50 [4]: > 100 µg/mL
- inhibitory activity against TGEV (in words) [6]: no inhibitory activity

Compound: O=c1c(O)c(-c2ccc(O)c(O)c2)oc2cc(O)cc(O)c12 [Quercetin, quercetin]
- inhibition at 10 µg/mL [3, 9]: 9.87%
- IC50 [4]: 10.7 µg/mL (≈ 35.4 µM)
- CC50 at 48 h (in vitro [7]): 365 µg/mL (≈ 1210 µM)

Compound: NC(=O)c1ncn([C@@H]2O[C@H](CO)[C@@H](O)[C@H]2O)n1 [Ribavirin, ribavirin]
- inhibition at 10 µg/mL [1, 10]: 95.8%
- Inhibitory activity (%) (Mean ± S.D.) [3, 9]: 42.32 ± 4.38%
- inhibition at 10 µg/mL [3, 9]: 42.3%
- inhibition at 10 µg/mL (rotavirus (strain: OSU); [11]): 82.3%
- CC50 at 48 h (in vitro [8]): > 100 µg/mL
- IC50 [5, 12]: 61.6 µg/mL (≈ 252 µM)
- IC50 [4]: 4.1 µg/mL (≈ 16.8 µM)
- IC50 [6, 12]: 55.1 µg/mL (≈ 226 µM)
- CC50 at 48 h (in vitro [7]): > 100 µg/mL
- inhibition at 10 µg/mL [2]: 74.2%

Compound: COc1ccc([C@@H]2CC(=O)c3c(O)cc(O[C@@H]4O[C@H](CO[C@@H]5O[C@@H](C)[C@H](O)[C@@H](O)[C@H]5O)[C@@H](O)[C@H](O)[C@H]4O)cc3O2)cc1O [Hesperidin, hesperidin]
- Inhibitory activity (%) (Mean ± S.D.) [3, 9]: 3.12%
- IC50 (concentration required for 50% inhibition of viruses) [4]: IC50 not attained even at the maximum dosage.
